Assay results as given in patent US9232796B2, “Herbicidal compositions comprising 4-amino-3-chloro-5-fluoro-6-(4-chloro-2-fluoro-3-methoxyphenyl) pyridine-2-carboxylic acid or a derivative thereof and acetyl-CoA carboxylase (ACCase) inhibitors” (DOW AGROSCIENCES LLC, priority 2012, dated 2016).

Tests used:
[1] = tested on: ECHCO; experiment: Example I postemergence foliar-applied, greenhouse, direct seeded rice weeds; format: in vivo, Echinochloa colona (L.) Link
Text: (§1) Seeds or nutlets of the desired test plant species were planted in a soil matrix prepared by mixing a loam or sandy loam soil (e.g., 28.6 percent silt, 18.8 percent clay, and 52.6 percent sand, with a pH of about 5.8 and an organic matter content of about 1.8 percent) and calcareous grit in an 80 to 20 ratio. The soil matrix was contained in plastic pots with a volume of 1 quart and a surface area of 83.6 square centimeters (cm^2). When required to ensure good germination and healthy plants, a fungicide treatment and/or other chemical or physical treatment was applied. The plants were grown for 8-22 days in a greenhouse with an approximate 14 hr. photoperiod which was maintained at about 29° C. during the day and 26° C. during the night. Nutrients (Peters Excel® 15-5-15 5-Ca 2-Mg and iron chelate) were applied in the irrigation solution as needed and water was added on a regular basis. Supplemental lighting was provided with overhead metal halide 1000-Watt lamps as necessary. The plants were employed for testing when they reached the first through fourth true leaf stage.
(§2) Treatments consisted of the acid or esters of 4-amino-3-chloro-5-fluoro-6-(4-chloro-2-fluoro-3-methoxy-phenyl)pyridine-2-carboxylic acid (Compound A), each formulated as an SC (suspension concentrate), and various herbicidal components alone and in combination.
(§3) Other herbicidal components were applied on an acid equivalent (ae) or active ingredient (ai) basis and included acetyl coA carboxylase (ACCase)-inhibiting herbicides (cyclohexanedione and aryloxyphenoxypropionate chemical classes) cyhalofop-butyl formulated as Clincher® SF (285 gr ai/L EC), diclofop-methyl formulated as Hoelon® 3EC, fenoxaprop-p-ethyl+isoxadifen-ethyl formulated as RiceStar® HT (0.58 lb./gal EC), fenoxaprop-p-ethyl+mefenpyr diethyl formulated as Puma® IEC, metamifop formulated as Metamifop EC, haloxyfop-methyl formulated as Gallant Super®, fluazifop-p-butyl formulated as Fusilade® DX, quizalofop-p-ethyl formulated as Assure® II, profoxydim formulated as Aura® 20EC, clethodim applied as Intensity®, sethoxydim formulated as Poast®, and tralkoxydim formulated as Achieve®.
(§4) Treatment requirements were calculated based upon the rates being tested, the concentration of active ingredient or acid equivalent in the formulation, and a 12 mL application volume at a rate of 187 L/ha.
(§5) For treatments comprised of formulated compounds, measured amounts of compounds were placed individually in 25 mL glass vials and diluted in a volume of 1.25% (v/v) Agri-Dex® crop oil concentrated to obtain 12× stock solutions. […] Application solutions were prepared by adding an appropriate amount of each stock solution (e.g., 1 mL) and diluted to the appropriate final concentrations with the addition of 10 mL of an aqueous mixture of 1.25% (v/v) crop oil concentrate so that the final spray solutions contained 1.25+/−0.05% (v/v) crop oil concentrate.
(§6) All stock solutions and applications solutions were visually inspected for compound compatibility prior to application. Spray solutions were applied to the plant material with an overhead Mandel track sprayer equipped with a 8002E nozzles calibrated to deliver 187 L/ha over an application area of 0.503 m^2 at a spray height of 18 to 20 inches (46 to 50 cm) above average plant canopy height. Control plants were sprayed in the same manner with the solvent blank.
(§7) The treated plants and control plants were placed in a greenhouse as described above and watered by sub-irrigation to prevent wash-off of the test compounds. After approximately 3 weeks, the condition of the test plants as compared with that of the untreated plants was determined visually and scored on a scale of 0 to 100 percent where 0 corresponds to no injury or growth inhibition and 100 corresponds to complete kill. […]

[2] = tested on: ECHCG; experiment: as above; format: in vivo, Echinochloa crusgalli (L.) Beauv.
Text: as §1, §2, §3, §4, §5, §6, §7

[3] = tested on: CYPIR; experiment: Example V (second) postemergence foliar-applied ternary mixtures, greenhouse, direct seeded rice weeds; format: in vivo, Cyperus iria L.
Procedure: The treated plants and control plants were placed in a greenhouse as described above and watered by sub-irrigation to prevent wash-off of the test compounds. After approximately 3 weeks, the condition of the test plants as compared with that of the untreated plants was determined visually and scored on a scale of 0 to 100 percent where 0 corresponds to no injury or growth inhibition and 100 corresponds to complete kill.
Colby's equation was used to determine the herbicidal effects expected from the mixtures (Colby, S. R. 1967. Calculation of the synergistic and antagonistic response of herbicide combinations. Weeds 15:20-22.).
The following equation was used to calculate the expected activity of mixtures containing three active ingredients, A, B, and C: Expected=A+B+C−((A×B+A×C+B×C)/100)+(A×B×C/10000)

## COc1c(Cl)ccc(-c2nc(C(=O)O)c(Cl)c(N)c2F)c1F [Compound A Acid, 4-amino-3-chloro-6-(4-chloro-2-fluoro-3-methoxyphenyl)-5-fluoropyridine-2-carboxylic acid]
[1]; 4.38 gae/ha
  Visual Weed Control (%) - 20 DAA ECHCO Obs: 40%
[1]; 8.75 gae/ha
  Visual Weed Control (%) - 20 DAA ECHCO Obs: 60%
[1]; 17.5 gae/ha
  Visual Weed Control (%) - 20 DAA ECHCO Obs: 85%

## C[C@@H](Oc1ccc(Oc2nc3ccc(Cl)cc3o2)cc1)C(=O)N(C)c1ccccc1F [Metamifop, (2R)-2-[4-[(6-chloro-2-benzoxazolyl)oxy]phenoxy]-N-(2-fluorophenyl)-N-methylpropanamide]
[2]; 9.38 gai/ha
  Visual Weed Control (%) - 22 DAA ECHCG Obs: 0%
[2]; 18.75 gai/ha
  Visual Weed Control (%) - 22 DAA ECHCG Obs: 40%
[2]; 37.5 gai/ha
  Visual Weed Control (%) - 22 DAA ECHCG Obs: 70%

## CCC/C(=N\OCC(C)Oc1ccc(Cl)cc1)C1=C(O)CC(C2CCCSC2)CC1=O (stereo not drawn) [Profoxydim, 2-[1-[[2-(4-chlorophenoxy)propoxy]imino]butyl]-3-hydroxy-5-(tetrahydro-2H-thiopyran-3-yl)-2-cyclohexen-1-one, reference compound]
[1]; 12.5 gai/ha
  Visual Weed Control (%) - 20 DAA ECHCO Obs: 70%
[3]; 3.12 gai/ha
  Visual Weed Control (%) - 22 DAA CYPIR Obs: 0%
[3]; 6.25 gai/ha
  Visual Weed Control (%) - 22 DAA CYPIR Obs: 0%

## CCCCOC(=O)[C@@H](C)Oc1ccc(Oc2ccc(C#N)cc2F)cc1 [Cyhalofop-butyl, butyl(2R)-2-[4-(4-cyano-2-fluorophenoxy)phenoxy]propanoate, reference compound]
[3]; 35 gai/ha
  Visual Weed Control (%) - 21 DAA CYPIR Obs: 0%

## CCOC(=O)[C@@H](C)Oc1ccc(Oc2cnc3cc(Cl)ccc3n2)cc1 [Quizalofop-p-ethyl, ethyl(2R)-2-[4-[(6-chloro-2-quinoxalinyl)oxy]phenoxy]propanoate, reference compound]
[2]; 3.75 gai/ha
  Visual Weed Control (%) - 22 DAA ECHCG Obs: 20%
[2]; 7.5 gai/ha
  Visual Weed Control (%) - 22 DAA ECHCG Obs: 30%

## COc1c(Cl)ccc(-c2nc(C(=O)OCc3ccccc3)c(Cl)c(N)c2F)c1F [Compound A Benzyl Ester, benzyl ester of 4-amino-3-chloro-5-fluoro-6-(4-chloro-2-fluoro-3-methoxy-phenyl)pyridine-2-carboxylic acid]
[2]; 8 gae/ha
  Visual Weed Control (%) - 22 DAA ECHCG Obs: 35%
[2]; 16 gae/ha
  Visual Weed Control (%) - 22 DAA ECHCG Obs: 65%
[2]; 32 gae/ha
  Visual Weed Control (%) - 22 DAA ECHCG Obs: 80%
[1]; 8 gae/ha
  Visual Weed Control (%) - 21 DAA ECHCO Obs: 40%
[1]; 16 gae/ha
  Visual Weed Control (%) - 21 DAA ECHCO Obs: 70%
[1]; 32 gae/ha
  Visual Weed Control (%) - 21 DAA ECHCO Obs: 95%
[3]; 8 gae/ha
  Visual Weed Control (%) - 21 DAA CYPIR Obs: 53%
  Visual Weed Control (%) - 22 DAA CYPIR Obs: 37%
[3]; 16 gae/ha
  Visual Weed Control (%) - 21 DAA CYPIR Obs: 95%
